Measurements published in ChEMBL document CHEMBL3124792, “Discovery and preclinical characterization of the cyclopropylindolobenzazepine BMS-791325, a potent allosteric inhibitor of the hepatitis C virus NS5B polymerase” (J Med Chem, 2014).
≈ marks a conversion by molar mass, not a printed value. Values belong to the compound of their own block, whether it stands above or below them.

What was measured:
Cytochrome P450 3A4 = Cytochrome P450 3A4 (Homo sapiens, UniProt P08684); experiment: Inhibition of CYP3A4 in human liver microsomes using benzyloxyresorufin as substrate after 30 mins in presence of NADPH; format: ADME
Cytochrome P450 2D6 = Cytochrome P450 2D6 (Homo sapiens, UniProt P10635); experiment: Inhibition of CYP2D6 in human liver microsomes after 30 mins in presence of NADPH; format: ADME
Cytochrome P450 2C19 = Cytochrome P450 2C19 (Homo sapiens, UniProt P33261); experiment: Inhibition of CYP2C19 in human liver microsomes after 30 mins in presence of NADPH; format: ADME
Cytochrome P450 2C9 = Cytochrome P450 2C9 (Homo sapiens, UniProt P11712); experiment: Inhibition of CYP2C9 in human liver microsomes after 30 mins in presence of NADPH; format: ADME
Cytochrome P450 1A2 = target: T1, Cytochrome P450 1A2 (Homo sapiens, UniProt P05177); experiment: Inhibition of CYP1A2 in human liver microsomes after 30 mins in presence of NADPH; format: ADME
T1 sequence (P05177 whole entry): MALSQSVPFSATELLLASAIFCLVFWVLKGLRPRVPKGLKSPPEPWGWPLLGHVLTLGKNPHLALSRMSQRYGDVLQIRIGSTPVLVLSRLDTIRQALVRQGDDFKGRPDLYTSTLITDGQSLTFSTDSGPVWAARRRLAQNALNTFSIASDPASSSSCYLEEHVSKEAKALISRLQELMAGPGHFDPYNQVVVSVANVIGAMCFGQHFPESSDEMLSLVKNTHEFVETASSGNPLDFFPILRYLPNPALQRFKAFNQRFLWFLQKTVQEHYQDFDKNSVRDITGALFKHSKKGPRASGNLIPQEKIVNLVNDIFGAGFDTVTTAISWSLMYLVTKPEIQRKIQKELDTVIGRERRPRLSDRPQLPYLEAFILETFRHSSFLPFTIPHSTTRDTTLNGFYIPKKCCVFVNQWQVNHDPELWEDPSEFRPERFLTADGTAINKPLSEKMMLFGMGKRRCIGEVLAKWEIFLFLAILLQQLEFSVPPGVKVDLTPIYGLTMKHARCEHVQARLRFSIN

[1] = target: Sodium channel protein type 5 subunit alpha (Homo sapiens, UniProt Q14524); experiment: Inhibition of human NaV1.5 expressed in HEK293 cells by fluorescence-based thallium flux assay; format: cell-based
HepG2 = experiment: Cytotoxicity against human HepG2 cells; format: cell-based
[2] = target: Voltage-gated inwardly rectifying potassium channel KCNH2 (Homo sapiens, UniProt Q12809); experiment: Inhibition of human ERG by fluorescence-based thallium flux assay
[3] = Plasma concentration in rat at 10 mg/kg, po after 6 hrs; format: ADME, organism-based; parameters: dose 10 mg/kg, route oral
[4] = Drug uptake in rat liver at 10 mg/kg, po after 6 hrs; format: ADME, organism-based; parameters: dose 10 mg/kg, route oral; settings: read-out: Drug uptake
[5] = AUC (0 to 6 hrs) in rat at 10 mg/kg, po; format: ADME, organism-based; parameters: time < 6 hr, dose 10 mg/kg, route oral; settings: plasma
[6] = Drug uptake in rat liver at 5 mg/kg, iv after 6 hrs; format: ADME, organism-based; parameters: dose 5 mg/kg, route intravenous; settings: read-out: Drug uptake
[7] = Plasma concentration in rat at 5 mg/kg, iv after 6 hrs; format: ADME, organism-based; parameters: dose 5 mg/kg, route intravenous
[8] = Clearance in rat at 5 mg/kg, iv and 10 mg/kg, po; format: ADME, organism-based; settings: in vivo
[9] = AUC (0 to 6 hrs) in rat at 5 mg/kg, iv; format: ADME, organism-based; parameters: time < 6 hr, dose 5 mg/kg, route intravenous; settings: plasma
[10] = Solubility of the compound in amorphous form in phosphate buffer at pH 6.5; format: physicochemical
[11] = Permeability of the compound at pH 7.4 by PAMPA; format: physicochemical; settings: read-out: permeability
[12] = target: T2, Nuclear receptor subfamily 1 group I member 2 (Homo sapiens, UniProt O75469); experiment: Transactivation of human PXR expressed in human HepG2 cells by luciferase reporter gene assay; format: cell-based
T2 sequence (O75469 whole entry): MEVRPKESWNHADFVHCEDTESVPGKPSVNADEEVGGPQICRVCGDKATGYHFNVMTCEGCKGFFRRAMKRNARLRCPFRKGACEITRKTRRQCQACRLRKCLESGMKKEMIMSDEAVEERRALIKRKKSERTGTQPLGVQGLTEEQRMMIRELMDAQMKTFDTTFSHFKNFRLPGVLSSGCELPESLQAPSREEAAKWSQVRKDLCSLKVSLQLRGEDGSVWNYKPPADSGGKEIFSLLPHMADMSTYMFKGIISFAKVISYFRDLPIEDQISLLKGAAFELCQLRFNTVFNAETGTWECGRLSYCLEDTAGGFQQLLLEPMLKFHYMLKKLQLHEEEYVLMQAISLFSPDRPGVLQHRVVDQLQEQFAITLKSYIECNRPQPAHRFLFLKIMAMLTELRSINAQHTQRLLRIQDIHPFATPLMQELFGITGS

[13] = Cytotoxicity against human HuH7 cells by Alamar blue assay; format: cell-based; settings: Huh-7 cells
Hepatitis C virus [14] = experiment: Antiviral activity against Hepatitis C virus Con1 genotype 1b infected in human HuH7 cells after 3 days by FRET assay in presence of 40% human serum; format: functional, organism-based, Hepacivirus hominis; settings: isolate Con1, Huh-7, 72 h
Hepatitis C virus [15] = experiment: Antiviral activity against Hepatitis C virus H77c genotype 1a infected in human HuH7 cells after 3 days by FRET assay; format: functional, organism-based, Hepacivirus hominis; settings: genotype 1a H77, Huh-7, 72 h
Hepatitis C virus [16] = experiment: Antiviral activity against Hepatitis C virus Con1 genotype 1b infected in human HuH7 cells after 3 days by FRET assay; format: functional, organism-based, Hepacivirus hominis; settings: isolate Con1, Huh-7, 72 h
Liver microsome [17] = settings: human, microsomes
Liver microsome [18] = settings: rat, microsomes
[19] = Ratio of drug level in liver to plasma in rat at 5 mg/kg, iv after 4 hrs; format: ADME, organism-based; parameters: dose 5 mg/kg, route intravenous
[20] = Plasma concentration in rat at 10 mg/kg, po after 4 hrs; format: ADME, organism-based; parameters: dose 10 mg/kg, route oral
[21] = Drug uptake in rat liver at 10 mg/kg, po after 4 hrs; format: ADME, organism-based; parameters: dose 10 mg/kg, route oral; settings: read-out: Drug uptake
[22] = AUC (0 to 4 hrs) in rat at 10 mg/kg, po; format: ADME, organism-based; parameters: time < 4 hr, dose 10 mg/kg, route oral; settings: plasma
[23] = Drug uptake in rat liver at 5 mg/kg, iv after 4 hrs; format: ADME, organism-based; parameters: dose 5 mg/kg, route intravenous; settings: read-out: Drug uptake
[24] = Plasma concentration in rat at 5 mg/kg, iv after 4 hrs; format: ADME, organism-based; parameters: dose 5 mg/kg, route intravenous
[25] = Plasma clearance in rat at 5 mg/kg, iv; format: ADME, organism-based; parameters: dose 5 mg/kg, route intravenous
[26] = AUC (0 to 4 hrs) in rat at 5 mg/kg, iv; format: ADME, organism-based; parameters: time < 4 hr, dose 5 mg/kg, route intravenous; settings: plasma

Cytochrome P450 2C9, sequence (P11712 whole entry): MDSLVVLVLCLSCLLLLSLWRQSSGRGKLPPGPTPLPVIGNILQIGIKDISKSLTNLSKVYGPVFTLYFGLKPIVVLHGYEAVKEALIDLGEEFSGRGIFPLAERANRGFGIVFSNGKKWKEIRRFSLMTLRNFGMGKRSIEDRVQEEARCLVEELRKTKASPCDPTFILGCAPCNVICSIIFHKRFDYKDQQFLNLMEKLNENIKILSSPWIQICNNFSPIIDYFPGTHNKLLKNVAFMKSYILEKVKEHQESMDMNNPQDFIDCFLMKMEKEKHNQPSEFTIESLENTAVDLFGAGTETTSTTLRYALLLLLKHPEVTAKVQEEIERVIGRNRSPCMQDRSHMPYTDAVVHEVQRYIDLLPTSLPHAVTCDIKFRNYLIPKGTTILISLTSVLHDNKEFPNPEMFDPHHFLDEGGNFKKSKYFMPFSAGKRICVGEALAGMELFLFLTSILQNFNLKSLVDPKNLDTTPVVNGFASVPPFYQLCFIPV
Cytochrome P450 2C19, sequence (P33261 whole entry): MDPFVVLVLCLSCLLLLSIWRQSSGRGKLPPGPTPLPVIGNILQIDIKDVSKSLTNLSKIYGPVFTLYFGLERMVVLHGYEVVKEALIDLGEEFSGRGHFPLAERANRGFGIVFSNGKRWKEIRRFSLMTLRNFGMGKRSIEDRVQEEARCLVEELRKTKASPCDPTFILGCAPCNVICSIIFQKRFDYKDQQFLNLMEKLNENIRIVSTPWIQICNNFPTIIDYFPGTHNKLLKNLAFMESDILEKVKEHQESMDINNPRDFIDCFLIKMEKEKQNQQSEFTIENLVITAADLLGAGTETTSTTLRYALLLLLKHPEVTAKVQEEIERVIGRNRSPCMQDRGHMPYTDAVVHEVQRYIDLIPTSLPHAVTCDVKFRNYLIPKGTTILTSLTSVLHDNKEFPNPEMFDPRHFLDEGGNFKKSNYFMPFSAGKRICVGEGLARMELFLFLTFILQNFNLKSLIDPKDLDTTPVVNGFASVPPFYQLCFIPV
Sodium channel protein type 5 subunit alpha, sequence (Q14524 whole entry): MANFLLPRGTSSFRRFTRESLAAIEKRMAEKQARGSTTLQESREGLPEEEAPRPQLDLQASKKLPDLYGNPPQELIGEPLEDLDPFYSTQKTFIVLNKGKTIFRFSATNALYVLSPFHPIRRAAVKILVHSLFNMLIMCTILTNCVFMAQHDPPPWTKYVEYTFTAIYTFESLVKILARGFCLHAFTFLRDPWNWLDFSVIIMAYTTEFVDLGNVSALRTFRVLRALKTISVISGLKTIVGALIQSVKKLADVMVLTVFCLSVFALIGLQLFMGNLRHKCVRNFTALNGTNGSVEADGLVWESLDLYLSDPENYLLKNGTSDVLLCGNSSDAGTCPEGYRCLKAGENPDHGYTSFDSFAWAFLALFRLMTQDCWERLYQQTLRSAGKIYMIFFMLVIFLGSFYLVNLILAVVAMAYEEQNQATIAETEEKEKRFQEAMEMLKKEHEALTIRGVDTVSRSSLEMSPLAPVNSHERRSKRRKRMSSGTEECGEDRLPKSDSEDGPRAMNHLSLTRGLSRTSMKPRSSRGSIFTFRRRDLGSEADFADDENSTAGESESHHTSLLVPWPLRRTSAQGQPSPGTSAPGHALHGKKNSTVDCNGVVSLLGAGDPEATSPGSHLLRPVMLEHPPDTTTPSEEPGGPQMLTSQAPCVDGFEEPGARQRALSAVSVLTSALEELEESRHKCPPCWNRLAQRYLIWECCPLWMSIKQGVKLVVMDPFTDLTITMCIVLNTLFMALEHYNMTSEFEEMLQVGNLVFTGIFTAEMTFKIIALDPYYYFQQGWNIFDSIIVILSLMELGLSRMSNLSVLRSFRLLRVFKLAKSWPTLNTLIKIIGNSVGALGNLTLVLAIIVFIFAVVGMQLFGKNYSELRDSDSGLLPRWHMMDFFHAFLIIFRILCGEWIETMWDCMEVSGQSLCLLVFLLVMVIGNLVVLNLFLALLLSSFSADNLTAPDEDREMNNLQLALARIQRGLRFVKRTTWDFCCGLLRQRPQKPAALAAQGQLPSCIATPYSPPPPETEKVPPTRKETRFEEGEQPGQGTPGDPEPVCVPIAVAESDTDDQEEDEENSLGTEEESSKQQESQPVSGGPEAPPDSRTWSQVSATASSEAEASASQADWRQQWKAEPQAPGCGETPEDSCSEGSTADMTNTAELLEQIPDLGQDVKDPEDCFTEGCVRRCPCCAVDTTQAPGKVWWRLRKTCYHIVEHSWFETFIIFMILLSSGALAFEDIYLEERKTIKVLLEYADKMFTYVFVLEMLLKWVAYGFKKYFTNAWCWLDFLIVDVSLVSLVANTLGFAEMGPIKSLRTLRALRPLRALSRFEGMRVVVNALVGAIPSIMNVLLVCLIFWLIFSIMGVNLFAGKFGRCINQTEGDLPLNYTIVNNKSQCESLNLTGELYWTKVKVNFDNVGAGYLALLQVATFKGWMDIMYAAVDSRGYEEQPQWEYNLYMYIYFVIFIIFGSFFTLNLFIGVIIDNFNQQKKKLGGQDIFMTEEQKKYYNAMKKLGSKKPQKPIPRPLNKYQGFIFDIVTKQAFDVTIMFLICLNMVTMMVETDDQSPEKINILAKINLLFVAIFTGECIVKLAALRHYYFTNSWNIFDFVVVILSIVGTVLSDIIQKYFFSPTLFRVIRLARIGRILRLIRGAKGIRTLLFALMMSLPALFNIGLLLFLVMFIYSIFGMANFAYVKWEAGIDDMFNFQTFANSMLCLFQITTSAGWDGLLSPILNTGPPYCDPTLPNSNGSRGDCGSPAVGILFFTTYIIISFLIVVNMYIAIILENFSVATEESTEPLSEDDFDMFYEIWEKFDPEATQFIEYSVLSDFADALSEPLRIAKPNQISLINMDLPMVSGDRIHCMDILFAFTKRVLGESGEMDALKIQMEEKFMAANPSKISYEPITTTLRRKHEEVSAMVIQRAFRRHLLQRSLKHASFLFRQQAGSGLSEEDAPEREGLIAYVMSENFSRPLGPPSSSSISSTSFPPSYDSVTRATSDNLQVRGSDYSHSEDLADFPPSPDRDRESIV
Cytochrome P450 3A4, sequence (P08684 whole entry): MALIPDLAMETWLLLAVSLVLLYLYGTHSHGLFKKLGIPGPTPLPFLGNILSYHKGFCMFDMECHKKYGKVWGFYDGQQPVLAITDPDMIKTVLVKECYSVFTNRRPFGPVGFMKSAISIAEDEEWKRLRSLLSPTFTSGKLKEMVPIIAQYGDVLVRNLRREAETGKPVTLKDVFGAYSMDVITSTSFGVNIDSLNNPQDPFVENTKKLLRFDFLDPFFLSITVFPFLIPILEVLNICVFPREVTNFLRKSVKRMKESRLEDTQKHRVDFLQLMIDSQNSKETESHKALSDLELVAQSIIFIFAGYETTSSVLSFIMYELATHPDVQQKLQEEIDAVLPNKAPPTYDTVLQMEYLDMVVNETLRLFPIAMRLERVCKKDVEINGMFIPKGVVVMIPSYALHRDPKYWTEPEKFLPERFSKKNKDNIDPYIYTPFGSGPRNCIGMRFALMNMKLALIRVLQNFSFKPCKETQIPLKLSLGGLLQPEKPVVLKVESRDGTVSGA
Cytochrome P450 2D6, sequence (P10635 whole entry): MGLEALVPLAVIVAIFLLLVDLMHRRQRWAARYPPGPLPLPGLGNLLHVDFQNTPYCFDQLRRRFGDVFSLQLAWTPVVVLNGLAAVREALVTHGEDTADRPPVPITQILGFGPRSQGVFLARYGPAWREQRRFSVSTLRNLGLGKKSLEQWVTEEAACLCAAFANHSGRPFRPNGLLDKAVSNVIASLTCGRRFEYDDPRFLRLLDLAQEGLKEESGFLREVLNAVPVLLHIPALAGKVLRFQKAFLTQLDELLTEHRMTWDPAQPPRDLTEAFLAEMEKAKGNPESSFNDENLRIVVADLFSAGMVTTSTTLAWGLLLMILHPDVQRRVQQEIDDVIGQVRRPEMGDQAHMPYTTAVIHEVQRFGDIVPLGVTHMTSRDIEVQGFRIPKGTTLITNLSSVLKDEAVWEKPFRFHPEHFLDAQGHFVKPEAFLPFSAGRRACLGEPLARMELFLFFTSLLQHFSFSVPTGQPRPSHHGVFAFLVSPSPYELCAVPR

EC50 (Cytochrome P450 3A4): 14 µM
EC50 (Cytochrome P450 2D6): > 40 µM
EC50 (Cytochrome P450 2C19): > 40 µM
EC50 (Cytochrome P450 2C9): > 40 µM
EC50 (Cytochrome P450 1A2): > 40 µM
concentration at 6 h [3]: 440 nM
concentration at 6 h [4]: 14300 nM
AUC(0-t) at 6 h [5]: 4.93 µM·h
concentration at 6 h [6]: 17500 nM
concentration at 6 h [7]: 409 nM
clearance [8]: 9 mL/min/kg
AUC(0-t) at 6 h [9]: 11.2 µM·h
solubility [10]: 760 µg/mL (≈ 1180 µM)
Papp [11]: 43 ×10⁻⁶ cm/s
EC50 [12]: > 50 µM
EC50 (Hepatitis C virus [14]): 0.028 µM
EC50 (Hepatitis C virus [15]): 0.006 µM
EC50 (Hepatitis C virus [16]): 0.005 µM
Stability (Liver microsome [17]): 98%
Stability (Liver microsome [18]): 98%
SMILES: COc1ccc2c(c1)[C@@H]1C[C@]1(C(=O)N1C3CC1CN(C)C3)Cn1c-2c(C2CCCCC2)c2ccc(C(=O)NS(=O)(=O)N(C)C)cc21
EC50 [1]: 30 µM
EC50 (HepG2): 25 µM
EC50 [2]: 20 µM
CC50 [13]: 13 µM

Kp at 4 h [19]: > 200
concentration at 4 h [20]: 11 nM
concentration at 4 h [21]: 8800 nM
AUC(0-t) at 4 h [22]: 0.041 µM·h
concentration at 4 h [23]: 5000 nM
concentration at 4 h [24]: 17 nM
clearance [25]: 96 mL/min/kg
AUC(0-t) at 4 h [26]: 1.42 µM·h
solubility [10]: 57 µg/mL (≈ 93.9 µM)
Papp [11]: 25 ×10⁻⁶ cm/s
EC50 [12]: > 50 µM
EC50 (Hepatitis C virus [14]): 0.059 µM
EC50 (Hepatitis C virus [15]): 0.045 µM
EC50 (Hepatitis C virus [16]): 0.038 µM
Stability (Liver microsome [17]): 95%
Stability (Liver microsome [18]): 84%
SMILES: COc1ccc2c(c1)C1CC1(C(=O)N1CC(O)C1)Cn1c-2c(C2CCCCC2)c2ccc(C(=O)NS(=O)(=O)N(C)C)cc21 (racemic)
CC50 [13]: > 10 µM
